{"source": "ChEMBL document CHEMBL5653615", "about": "(J Biol Chem, 2013)", "key": {"[1]": {"target": "Dual specificity tyrosine-phosphorylation-regulated kinase 1B (Homo sapiens) (UniProt Q9Y463)", "assay": "Inhibition of human DYRK1B at 500 nM by HotSpot assay relative to control"}, "[2]": {"target": "Leukocyte tyrosine kinase receptor (Homo sapiens) (UniProt P29376)", "sequence (P29376 whole entry)": "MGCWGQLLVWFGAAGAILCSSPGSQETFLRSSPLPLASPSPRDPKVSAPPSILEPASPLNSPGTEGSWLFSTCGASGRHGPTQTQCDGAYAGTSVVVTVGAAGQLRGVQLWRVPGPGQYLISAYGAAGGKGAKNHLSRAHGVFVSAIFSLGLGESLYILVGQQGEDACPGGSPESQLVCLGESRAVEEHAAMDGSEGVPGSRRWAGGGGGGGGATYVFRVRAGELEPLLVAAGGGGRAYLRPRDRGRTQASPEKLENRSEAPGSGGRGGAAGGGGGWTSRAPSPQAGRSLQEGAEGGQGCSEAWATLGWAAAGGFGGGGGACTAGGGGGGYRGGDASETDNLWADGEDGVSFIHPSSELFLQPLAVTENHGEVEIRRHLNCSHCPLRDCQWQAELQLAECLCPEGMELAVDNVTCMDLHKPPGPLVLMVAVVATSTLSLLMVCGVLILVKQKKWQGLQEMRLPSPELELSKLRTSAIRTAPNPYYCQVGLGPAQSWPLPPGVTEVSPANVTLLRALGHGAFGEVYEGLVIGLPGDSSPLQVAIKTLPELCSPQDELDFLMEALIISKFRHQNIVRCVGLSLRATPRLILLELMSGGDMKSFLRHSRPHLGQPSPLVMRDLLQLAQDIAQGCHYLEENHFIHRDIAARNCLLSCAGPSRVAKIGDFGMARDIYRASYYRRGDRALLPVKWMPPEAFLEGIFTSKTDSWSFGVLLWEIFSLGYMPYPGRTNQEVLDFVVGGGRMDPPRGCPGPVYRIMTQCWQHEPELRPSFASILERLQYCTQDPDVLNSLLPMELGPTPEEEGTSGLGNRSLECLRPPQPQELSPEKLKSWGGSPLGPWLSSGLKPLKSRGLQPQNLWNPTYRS", "assay": "Inhibition of human LTK at 500 nM by HotSpot assay relative to control"}, "[3]": {"target": "Serine/threonine-protein kinase N2 (Homo sapiens) (UniProt Q16513)", "sequence (Q16513 whole entry, looked up)": "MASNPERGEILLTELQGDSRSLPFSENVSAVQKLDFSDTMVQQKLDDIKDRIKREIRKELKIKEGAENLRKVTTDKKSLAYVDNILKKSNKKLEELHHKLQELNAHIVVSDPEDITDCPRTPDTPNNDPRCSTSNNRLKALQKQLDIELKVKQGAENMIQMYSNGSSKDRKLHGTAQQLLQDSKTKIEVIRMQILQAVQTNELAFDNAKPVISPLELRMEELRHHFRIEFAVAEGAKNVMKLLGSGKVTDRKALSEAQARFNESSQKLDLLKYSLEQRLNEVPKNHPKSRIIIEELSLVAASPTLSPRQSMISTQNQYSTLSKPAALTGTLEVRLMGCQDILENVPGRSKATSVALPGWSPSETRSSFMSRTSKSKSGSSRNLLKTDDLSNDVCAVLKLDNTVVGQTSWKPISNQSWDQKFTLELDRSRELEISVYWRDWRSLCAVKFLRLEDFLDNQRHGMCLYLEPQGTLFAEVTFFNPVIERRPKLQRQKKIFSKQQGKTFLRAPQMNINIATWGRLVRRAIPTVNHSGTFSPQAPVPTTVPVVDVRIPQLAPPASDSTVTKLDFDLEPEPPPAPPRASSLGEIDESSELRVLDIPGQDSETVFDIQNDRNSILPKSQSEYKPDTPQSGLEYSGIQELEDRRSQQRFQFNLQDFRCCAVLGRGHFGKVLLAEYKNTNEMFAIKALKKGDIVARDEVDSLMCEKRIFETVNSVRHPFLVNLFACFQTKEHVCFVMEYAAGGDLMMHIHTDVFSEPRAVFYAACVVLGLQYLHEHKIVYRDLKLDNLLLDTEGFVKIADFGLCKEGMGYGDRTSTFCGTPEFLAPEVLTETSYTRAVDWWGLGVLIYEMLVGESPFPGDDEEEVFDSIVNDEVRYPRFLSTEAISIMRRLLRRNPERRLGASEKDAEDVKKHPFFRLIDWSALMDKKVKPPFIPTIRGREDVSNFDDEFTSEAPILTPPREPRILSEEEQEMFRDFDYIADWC", "assay": "Inhibition of human PRK2 at 500 nM by HotSpot assay relative to control"}, "[4]": {"target": "Tyrosine-protein kinase CSK (Homo sapiens) (UniProt P41240)", "sequence (P41240 2-450 limits assumed)": "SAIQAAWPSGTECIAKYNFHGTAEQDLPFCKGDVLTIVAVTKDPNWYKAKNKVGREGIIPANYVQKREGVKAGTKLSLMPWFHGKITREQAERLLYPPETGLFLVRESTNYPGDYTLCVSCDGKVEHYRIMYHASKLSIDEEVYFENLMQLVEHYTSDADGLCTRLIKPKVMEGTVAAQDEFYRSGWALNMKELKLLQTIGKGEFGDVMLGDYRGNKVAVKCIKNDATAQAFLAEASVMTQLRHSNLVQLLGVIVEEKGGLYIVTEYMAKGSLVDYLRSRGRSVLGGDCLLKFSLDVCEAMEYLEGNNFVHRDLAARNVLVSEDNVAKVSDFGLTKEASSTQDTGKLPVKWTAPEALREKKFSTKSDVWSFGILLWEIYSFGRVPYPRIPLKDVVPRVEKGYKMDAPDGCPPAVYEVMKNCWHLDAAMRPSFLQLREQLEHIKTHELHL", "assay": "Inhibition of human CSK at 500 nM by HotSpot assay relative to control"}, "Homo sapiens": {"species": "Homo sapiens", "assay": "Inhibition of human TAO1 at 500 nM by HotSpot assay relative to control"}, "[5]": {"target": "T1, Discoidin domain-containing receptor 2 (Homo sapiens) (UniProt Q16832)", "T1 sequence (whole entry)": "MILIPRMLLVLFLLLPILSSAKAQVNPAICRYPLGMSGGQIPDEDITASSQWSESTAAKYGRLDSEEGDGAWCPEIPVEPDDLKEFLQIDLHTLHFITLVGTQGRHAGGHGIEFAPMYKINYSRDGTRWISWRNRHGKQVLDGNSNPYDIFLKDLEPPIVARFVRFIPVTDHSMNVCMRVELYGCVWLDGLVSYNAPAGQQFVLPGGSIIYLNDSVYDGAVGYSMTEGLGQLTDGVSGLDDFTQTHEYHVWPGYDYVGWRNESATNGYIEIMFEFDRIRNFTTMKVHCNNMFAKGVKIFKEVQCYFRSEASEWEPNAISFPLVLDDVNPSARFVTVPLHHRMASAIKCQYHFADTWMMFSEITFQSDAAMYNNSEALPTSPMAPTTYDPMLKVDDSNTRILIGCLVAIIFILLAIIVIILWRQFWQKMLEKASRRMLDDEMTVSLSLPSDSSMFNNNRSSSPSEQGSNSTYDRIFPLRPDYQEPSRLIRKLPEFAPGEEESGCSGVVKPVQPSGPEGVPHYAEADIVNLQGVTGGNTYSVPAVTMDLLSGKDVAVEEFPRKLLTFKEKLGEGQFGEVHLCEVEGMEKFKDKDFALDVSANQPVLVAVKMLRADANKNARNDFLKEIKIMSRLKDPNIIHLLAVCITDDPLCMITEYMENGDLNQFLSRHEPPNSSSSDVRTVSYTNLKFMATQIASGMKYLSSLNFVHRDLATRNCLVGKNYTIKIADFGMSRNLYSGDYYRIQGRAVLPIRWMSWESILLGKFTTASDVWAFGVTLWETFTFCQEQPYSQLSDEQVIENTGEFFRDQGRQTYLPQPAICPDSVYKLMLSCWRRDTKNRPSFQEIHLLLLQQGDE", "assay": "Inhibition of human DDR2 at 500 nM by HotSpot assay relative to control"}, "[6]": {"target": "Homeodomain-interacting protein kinase 3 (Homo sapiens) (UniProt Q9H422)", "assay": "Inhibition of human HIPK3 at 500 nM by HotSpot assay relative to control"}, "[7]": {"target": "RAF proto-oncogene serine/threonine-protein kinase (Homo sapiens) (UniProt P04049)", "assay": "Inhibition of human RAF1 at 500 nM by HotSpot assay relative to control"}, "[8]": {"target": "SRSF protein kinase 3 (Homo sapiens) (UniProt Q9UPE1)", "sequence (Q9UPE1 whole entry)": "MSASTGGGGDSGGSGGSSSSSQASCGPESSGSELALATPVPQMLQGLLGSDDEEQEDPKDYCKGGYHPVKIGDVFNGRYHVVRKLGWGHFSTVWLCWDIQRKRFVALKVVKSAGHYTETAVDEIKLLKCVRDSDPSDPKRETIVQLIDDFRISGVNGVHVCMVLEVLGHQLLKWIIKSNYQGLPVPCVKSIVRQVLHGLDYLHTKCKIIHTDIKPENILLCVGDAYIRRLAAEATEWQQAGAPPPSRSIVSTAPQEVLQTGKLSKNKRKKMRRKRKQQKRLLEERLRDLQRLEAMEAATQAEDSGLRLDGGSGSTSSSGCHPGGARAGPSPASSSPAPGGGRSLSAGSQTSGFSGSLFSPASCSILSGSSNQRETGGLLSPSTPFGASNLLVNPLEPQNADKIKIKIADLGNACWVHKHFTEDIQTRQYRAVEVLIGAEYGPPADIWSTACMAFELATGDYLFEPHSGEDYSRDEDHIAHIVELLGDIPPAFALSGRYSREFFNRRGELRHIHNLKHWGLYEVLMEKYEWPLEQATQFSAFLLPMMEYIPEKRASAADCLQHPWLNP", "assay": "Inhibition of human STK23 at 500 nM by HotSpot assay relative to control"}, "[9]": {"target": "T2, Megakaryocyte-associated tyrosine-protein kinase (Homo sapiens) (UniProt P42679)", "T2 sequence (whole entry)": "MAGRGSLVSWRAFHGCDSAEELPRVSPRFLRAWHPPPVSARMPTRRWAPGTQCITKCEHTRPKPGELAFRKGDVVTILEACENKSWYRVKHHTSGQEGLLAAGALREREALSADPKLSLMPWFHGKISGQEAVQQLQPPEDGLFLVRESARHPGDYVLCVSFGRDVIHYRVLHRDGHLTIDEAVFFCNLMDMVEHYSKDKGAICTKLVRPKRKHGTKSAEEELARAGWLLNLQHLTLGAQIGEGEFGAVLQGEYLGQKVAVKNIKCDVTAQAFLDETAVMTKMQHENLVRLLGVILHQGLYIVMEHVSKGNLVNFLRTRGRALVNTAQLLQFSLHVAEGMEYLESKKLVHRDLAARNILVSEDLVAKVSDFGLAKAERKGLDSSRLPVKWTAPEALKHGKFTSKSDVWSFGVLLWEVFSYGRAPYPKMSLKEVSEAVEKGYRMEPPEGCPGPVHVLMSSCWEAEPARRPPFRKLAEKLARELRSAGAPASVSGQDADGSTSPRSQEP", "assay": "Inhibition of human CTK at 500 nM by HotSpot assay relative to control"}, "[10]": {"target": "Serine/threonine-protein kinase PLK1 (Homo sapiens) (UniProt P53350)", "assay": "Inhibition of human PLK1 at 500 nM by HotSpot assay relative to control"}, "[11]": {"target": "Serine/threonine-protein kinase 10 (Homo sapiens) (UniProt O94804)", "sequence (O94804 whole entry, looked up)": "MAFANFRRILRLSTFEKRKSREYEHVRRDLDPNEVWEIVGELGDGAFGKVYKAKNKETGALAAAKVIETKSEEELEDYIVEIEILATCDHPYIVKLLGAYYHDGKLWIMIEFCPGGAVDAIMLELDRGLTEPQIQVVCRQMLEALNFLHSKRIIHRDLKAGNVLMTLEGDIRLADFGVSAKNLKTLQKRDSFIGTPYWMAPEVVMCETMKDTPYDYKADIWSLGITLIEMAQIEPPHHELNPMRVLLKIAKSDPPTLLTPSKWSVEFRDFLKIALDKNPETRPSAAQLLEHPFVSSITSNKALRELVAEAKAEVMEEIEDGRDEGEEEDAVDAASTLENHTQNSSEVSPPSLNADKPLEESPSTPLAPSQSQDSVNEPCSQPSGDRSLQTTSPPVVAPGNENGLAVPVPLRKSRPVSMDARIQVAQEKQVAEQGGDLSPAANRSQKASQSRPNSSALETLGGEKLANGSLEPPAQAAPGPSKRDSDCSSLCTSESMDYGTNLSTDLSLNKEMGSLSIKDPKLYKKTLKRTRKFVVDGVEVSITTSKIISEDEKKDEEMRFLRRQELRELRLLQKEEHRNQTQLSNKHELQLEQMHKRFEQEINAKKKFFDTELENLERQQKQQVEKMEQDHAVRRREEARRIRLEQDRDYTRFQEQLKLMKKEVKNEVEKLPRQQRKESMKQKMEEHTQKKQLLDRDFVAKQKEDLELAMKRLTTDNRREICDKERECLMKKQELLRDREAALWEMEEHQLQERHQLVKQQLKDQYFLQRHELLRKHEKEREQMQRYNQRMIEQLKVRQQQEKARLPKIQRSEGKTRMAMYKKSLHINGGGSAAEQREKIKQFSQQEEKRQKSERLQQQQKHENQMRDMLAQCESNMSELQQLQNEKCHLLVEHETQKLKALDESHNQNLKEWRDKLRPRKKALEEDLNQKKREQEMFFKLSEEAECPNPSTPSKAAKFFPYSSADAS", "assay": "Inhibition of human LOK at 500 nM by HotSpot assay relative to control"}, "[12]": {"target": "Tyrosine-protein kinase ABL2 (Homo sapiens) (UniProt P42684)", "sequence (P42684 whole entry)": "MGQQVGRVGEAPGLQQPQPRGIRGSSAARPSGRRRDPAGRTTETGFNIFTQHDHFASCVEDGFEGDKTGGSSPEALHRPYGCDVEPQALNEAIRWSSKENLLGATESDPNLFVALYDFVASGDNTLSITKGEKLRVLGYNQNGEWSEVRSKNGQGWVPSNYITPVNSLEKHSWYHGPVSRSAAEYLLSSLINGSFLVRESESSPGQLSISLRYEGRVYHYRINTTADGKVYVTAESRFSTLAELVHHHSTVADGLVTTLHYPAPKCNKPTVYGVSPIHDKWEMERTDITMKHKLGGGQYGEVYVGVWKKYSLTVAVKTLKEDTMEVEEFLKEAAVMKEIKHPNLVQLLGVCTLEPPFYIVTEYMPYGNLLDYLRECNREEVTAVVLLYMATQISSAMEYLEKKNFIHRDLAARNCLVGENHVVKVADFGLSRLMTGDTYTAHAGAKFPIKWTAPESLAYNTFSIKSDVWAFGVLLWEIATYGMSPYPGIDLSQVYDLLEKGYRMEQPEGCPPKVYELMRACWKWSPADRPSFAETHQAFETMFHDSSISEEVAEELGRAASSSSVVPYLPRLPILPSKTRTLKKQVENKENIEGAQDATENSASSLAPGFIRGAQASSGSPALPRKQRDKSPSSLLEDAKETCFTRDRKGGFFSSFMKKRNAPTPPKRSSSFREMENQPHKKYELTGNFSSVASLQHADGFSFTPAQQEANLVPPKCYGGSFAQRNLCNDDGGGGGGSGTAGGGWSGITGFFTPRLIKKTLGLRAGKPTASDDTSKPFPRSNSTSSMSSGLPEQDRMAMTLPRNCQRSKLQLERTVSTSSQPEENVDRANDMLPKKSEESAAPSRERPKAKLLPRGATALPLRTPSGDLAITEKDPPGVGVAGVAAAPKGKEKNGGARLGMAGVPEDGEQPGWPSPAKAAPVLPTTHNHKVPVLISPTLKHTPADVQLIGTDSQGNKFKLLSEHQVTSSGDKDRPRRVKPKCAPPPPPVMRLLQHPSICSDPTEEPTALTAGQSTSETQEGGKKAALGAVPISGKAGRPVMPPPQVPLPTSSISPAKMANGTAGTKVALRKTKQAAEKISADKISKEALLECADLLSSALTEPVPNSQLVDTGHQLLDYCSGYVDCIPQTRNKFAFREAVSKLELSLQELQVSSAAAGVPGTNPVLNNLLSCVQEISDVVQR", "assay": "Inhibition of human ABL2 at 500 nM by HotSpot assay relative to control"}, "[13]": {"target": "Cyclin-dependent kinase 7/ cyclin H (Homo sapiens) (UniProt P51946+P50613)", "assay": "Inhibition of human CDK7/cyclin H at 500 nM by HotSpot assay relative to control", "format": "protein-complex assay"}}}
{"smiles": "Nc1n[nH]c2nnc(-c3c(-c4ccccc4)nn4ccccc34)cc12", "values": [{"measurement": "inhibition", "setting": "[1]", "result": -0.86, "unit": "%"}, {"measurement": "inhibition", "setting": "[2]", "result": 9.45, "unit": "%"}, {"measurement": "inhibition", "setting": "[3]", "result": 1.14, "unit": "%"}, {"measurement": "inhibition", "setting": "[4]", "result": 1.98, "unit": "%"}, {"measurement": "inhibition", "setting": "Homo sapiens", "result": -1.14, "unit": "%"}, {"measurement": "inhibition", "setting": "[5]", "result": -0.55, "unit": "%"}, {"measurement": "inhibition", "setting": "[6]", "result": -3.93, "unit": "%"}, {"measurement": "inhibition", "setting": "[7]", "result": 4.42, "unit": "%"}, {"measurement": "inhibition", "setting": "[8]", "result": 11.2, "unit": "%"}, {"measurement": "inhibition", "setting": "[9]", "result": 4.4, "unit": "%"}, {"measurement": "inhibition", "setting": "[10]", "result": 1.9, "unit": "%"}, {"measurement": "inhibition", "setting": "[11]", "result": 29.1, "unit": "%"}, {"measurement": "inhibition", "setting": "[12]", "result": 42.5, "unit": "%"}, {"measurement": "inhibition", "setting": "[13]", "result": 0.97, "unit": "%"}]}
{"smiles": "Oc1n[nH]c2nnc(-c3c(-c4ccccc4)nn4ccccc34)cc12", "values": [{"measurement": "inhibition", "setting": "[1]", "result": -1.78, "unit": "%"}, {"measurement": "inhibition", "setting": "[2]", "result": -7.87, "unit": "%"}, {"measurement": "inhibition", "setting": "[3]", "result": 1.9, "unit": "%"}, {"measurement": "inhibition", "setting": "[4]", "result": -1.06, "unit": "%"}, {"measurement": "inhibition", "setting": "Homo sapiens", "result": 1.69, "unit": "%"}, {"measurement": "inhibition", "setting": "[5]", "result": -2.78, "unit": "%"}, {"measurement": "inhibition", "setting": "[6]", "result": -0.3, "unit": "%"}, {"measurement": "inhibition", "setting": "[7]", "result": 1.96, "unit": "%"}, {"measurement": "inhibition", "setting": "[8]", "result": 0.76, "unit": "%"}, {"measurement": "inhibition", "setting": "[9]", "result": 1.78, "unit": "%"}, {"measurement": "inhibition", "setting": "[10]", "result": 2.92, "unit": "%"}, {"measurement": "inhibition", "setting": "[11]", "result": 5.81, "unit": "%"}, {"measurement": "inhibition", "setting": "[12]", "result": 3.05, "unit": "%"}, {"measurement": "inhibition", "setting": "[13]", "result": 3.04, "unit": "%"}]}
